Measured values as given in ChEMBL document CHEMBL3758091, “Identification of N-(6-mercaptohexyl)-3-(4-pyridyl)-1H-pyrazole-5-carboxamide and its disulfide prodrug as potent histone deacetylase inhibitors with in vitro and in vivo anti-tumor efficacy” (Eur J Med Chem, 2016).

Key:
[1] = cells; type: functional; conditions: Homo sapiens, HCT-116, 96 h
Description: Growth inhibition of human HCT116 cells after 96 hrs by MTT assay

[2] = target: T1, Protein deacetylase HDAC6 (Homo sapiens, UniProt Q9UBN7); test: Inhibition of recombinant human HDAC6 using Boc-Lys(Ac)-AMC as substrate preincubated for 15 mins followed by substrate addition measured after 60 mins by fluorescence-based assay
T1 sequence (Q9UBN7 whole entry): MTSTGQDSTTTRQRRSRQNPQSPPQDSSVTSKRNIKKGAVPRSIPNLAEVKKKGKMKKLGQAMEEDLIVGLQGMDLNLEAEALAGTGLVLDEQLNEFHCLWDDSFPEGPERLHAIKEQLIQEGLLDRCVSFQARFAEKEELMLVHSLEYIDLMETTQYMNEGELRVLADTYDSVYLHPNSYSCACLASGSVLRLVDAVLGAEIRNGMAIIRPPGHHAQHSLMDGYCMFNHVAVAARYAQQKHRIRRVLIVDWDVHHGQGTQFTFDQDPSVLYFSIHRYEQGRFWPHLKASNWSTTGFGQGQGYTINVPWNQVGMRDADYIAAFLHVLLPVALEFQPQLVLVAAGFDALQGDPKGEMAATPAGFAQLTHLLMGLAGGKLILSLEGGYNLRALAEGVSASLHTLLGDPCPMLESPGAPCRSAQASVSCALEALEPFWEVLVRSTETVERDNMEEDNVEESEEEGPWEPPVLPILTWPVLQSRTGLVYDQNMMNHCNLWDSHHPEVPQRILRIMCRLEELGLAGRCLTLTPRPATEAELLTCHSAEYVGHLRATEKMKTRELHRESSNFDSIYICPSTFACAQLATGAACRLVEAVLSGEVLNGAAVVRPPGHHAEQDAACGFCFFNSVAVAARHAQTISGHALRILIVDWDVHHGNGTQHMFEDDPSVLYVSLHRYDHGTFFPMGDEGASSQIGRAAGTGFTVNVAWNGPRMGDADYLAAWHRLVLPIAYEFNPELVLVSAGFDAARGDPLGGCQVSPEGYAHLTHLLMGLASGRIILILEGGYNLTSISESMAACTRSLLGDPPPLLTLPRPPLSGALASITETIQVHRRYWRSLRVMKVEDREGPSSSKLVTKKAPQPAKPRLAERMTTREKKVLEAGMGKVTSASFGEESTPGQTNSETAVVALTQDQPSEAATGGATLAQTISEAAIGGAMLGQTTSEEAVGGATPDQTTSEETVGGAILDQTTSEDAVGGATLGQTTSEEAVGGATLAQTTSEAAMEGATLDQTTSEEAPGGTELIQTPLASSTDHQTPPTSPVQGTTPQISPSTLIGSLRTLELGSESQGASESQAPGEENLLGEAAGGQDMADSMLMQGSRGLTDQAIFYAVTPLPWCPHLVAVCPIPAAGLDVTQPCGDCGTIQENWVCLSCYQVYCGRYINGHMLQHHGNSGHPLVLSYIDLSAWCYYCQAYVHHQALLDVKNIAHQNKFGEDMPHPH

[3] = target: Histone deacetylase 1 (Homo sapiens, UniProt Q13547); test: Inhibition of recombinant human HDAC1 using Boc-Lys(Ac)-AMC as substrate preincubated for 15 mins followed by substrate addition measured after 60 mins by fluorescence-based assay
[4] = target: Histone deacetylase; test: Inhibition of HDAC in human HeLa cell nuclear extract using Boc-Lys(Ac)-AMC as substrate preincubated for 15 mins followed by substrate addition measured after 60 mins by fluorescence-based assay
[5] = test system: MCF7; test: cells; type: functional; conditions: Homo sapiens, MCF7, 96 h
Description: Growth inhibition of human MCF7 cells after 96 hrs by MTT assay

[6] = test system: MDA-MB-231; test: cells; type: functional; conditions: Homo sapiens, MDA-MB-231, 96 h
Description: Growth inhibition of human MDA-MB-231 cells after 96 hrs by MTT assay

[7] = test system: A549; test: cells; type: functional; conditions: Homo sapiens, A549, 96 h
Description: Growth inhibition of human A549 cells after 96 hrs by MTT assay

[8] = test system: HT-29; test: Growth inhibition of human HT-29 cells after 96 hrs by MTT assay; type: functional; conditions: Homo sapiens, HT-29, 96 h
[9] = Cytotoxicity against HEK293 cells assessed as growth inhibition after 96 hrs by MTT assay; conditions: human
[10] = cells; type: functional; conditions: Homo sapiens, ASPC1, 96 h
Description: Growth inhibition of human Aspc-1 cells after 96 hrs by MTT assay

[11] = cells; type: functional; conditions: Homo sapiens, PC-3, 96 h
Description: Growth inhibition of human PC3 cells after 96 hrs by MTT assay

Sequence of Histone deacetylase 1 (Q13547 whole entry): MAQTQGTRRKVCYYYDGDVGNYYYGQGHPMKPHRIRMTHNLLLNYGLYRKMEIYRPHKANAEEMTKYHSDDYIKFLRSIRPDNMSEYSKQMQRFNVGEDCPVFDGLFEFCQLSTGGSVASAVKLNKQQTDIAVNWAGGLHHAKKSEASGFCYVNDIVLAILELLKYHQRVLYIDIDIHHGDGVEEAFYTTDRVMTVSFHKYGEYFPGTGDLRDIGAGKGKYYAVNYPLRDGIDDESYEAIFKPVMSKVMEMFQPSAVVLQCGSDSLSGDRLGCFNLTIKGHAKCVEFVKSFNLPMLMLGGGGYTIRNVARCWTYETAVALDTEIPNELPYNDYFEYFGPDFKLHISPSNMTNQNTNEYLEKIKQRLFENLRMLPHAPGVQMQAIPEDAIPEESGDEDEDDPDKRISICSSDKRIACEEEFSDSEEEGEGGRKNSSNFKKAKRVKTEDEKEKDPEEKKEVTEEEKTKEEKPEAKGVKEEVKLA

O=C(NCCCCCCS)c1cc(C2CCCCC2)n[nH]1
GI50 [1]: > 50 µM | IC50 [2]: 0.241 µM | IC50 [3]: 0.331 µM | IC50 [4]: 0.364 µM | GI50 [5]: > 50 µM

C=CCOC(=O)SCCCCCCNC(=O)c1cc(-c2ccncc2)n[nH]1
GI50 [1]: 32.9 µM | GI50 [6]: 36 µM | GI50 [7]: 15.2 µM | GI50 [8]: 11.9 µM | GI50 at 96 h [9]: 27.5 µM | GI50 [10]: 27.5 µM | GI50 [11]: 24.8 µM | GI50 [5]: 12.6 µM

O=C(NCCCCCCS)c1cc(-c2ccc(-c3ccccc3)cc2)n[nH]1
GI50 [1]: > 50 µM | IC50 [2]: 0.106 µM | IC50 [3]: 0.225 µM | IC50 [4]: 0.043 µM | GI50 [5]: > 50 µM

O=C(NCCCCCCS)c1cc(-c2ccccc2)n[nH]1
GI50 [1]: > 50 µM | IC50 [2]: 0.03 µM | IC50 [3]: 0.098 µM | IC50 [4]: 0.023 µM | GI50 [5]: > 50 µM

O=C(NCCCCCCS)c1cc(-c2ccc3ccccc3c2)n[nH]1
GI50 [1]: > 50 µM | IC50 [2]: 0.235 µM | IC50 [3]: 0.133 µM | IC50 [4]: 0.102 µM | GI50 [5]: > 50 µM

CCC(=O)SCCCCCCNC(=O)c1cc(-c2ccncc2)n[nH]1
GI50 [1]: > 50 µM | GI50 [6]: > 50 µM | GI50 [7]: > 50 µM | GI50 [8]: > 50 µM | GI50 at 96 h [9]: > 50 µM | GI50 [10]: > 50 µM | GI50 [11]: > 50 µM | GI50 [5]: > 50 µM

O=C(NCCCCCCS)c1ccn[nH]1
GI50 [1]: > 50 µM | IC50 [2]: 0.092 µM | IC50 [3]: 0.526 µM | IC50 [4]: 0.081 µM | GI50 [5]: > 50 µM

Cc1cc(C(=O)NCCCCCCS)[nH]n1
GI50 [1]: > 50 µM | IC50 [4]: 0.715 µM | GI50 [5]: > 50 µM

O=C(OCc1ccccc1)SCCCCCCNC(=O)c1cc(-c2ccncc2)n[nH]1
GI50 [1]: 18.2 µM | GI50 [6]: 24.7 µM | GI50 [7]: 13.4 µM | GI50 [8]: 22 µM | GI50 at 96 h [9]: 19.7 µM | GI50 [10]: 32.3 µM | GI50 [11]: 15.4 µM | GI50 [5]: 8.37 µM

O=C(NCCCCCCS)c1cc(-c2c[nH]c3ccccc23)n[nH]1
GI50 [1]: > 50 µM | IC50 [2]: 0.033 µM | IC50 [3]: 0.15 µM | IC50 [4]: 0.07 µM | GI50 [5]: 18.2 µM

CSCCCCCCNC(=O)c1cc(-c2ccncc2)n[nH]1
GI50 [1]: > 50 µM | GI50 [6]: > 50 µM | GI50 [7]: > 50 µM | GI50 [8]: > 50 µM | GI50 at 96 h [9]: > 50 µM | GI50 [10]: > 50 µM | GI50 [11]: > 50 µM | GI50 [5]: > 50 µM

CC(C)C(=O)SCCCCCCNC(=O)c1cc(-c2ccncc2)n[nH]1
GI50 [1]: 22.7 µM | GI50 [6]: > 50 µM | GI50 [7]: 16.8 µM | GI50 [8]: 25.7 µM | GI50 at 96 h [9]: > 50 µM | GI50 [10]: 31.7 µM | GI50 [11]: 22.4 µM | GI50 [5]: 15.2 µM
